Experimental data as given in US8962843B2, “1,3,4-oxadiazole and 1,3,4-thiadiazole beta-lactamase inhibitors” (priority 2012, dated 2015).
Where a name gives a salt, the structure may show the parent alone.

What was measured:
[1] = tested on: bacterial strains that express KPC β-lactamases; experiment: Standard BLI potentiation MIC / synergy MIC assays, strains expressing KPC β-lactamases; format: cell-based; conditions: in combination with a β-lactam; comparator Avibactam
Method: The experimental protocol was performed according to Clinical and Laboratory Standards Institute (CLSI) guidelines with modifications as described below (CLSI guidelines can be derived from the CLSI document M07-A9 published in January 2012: “Methods for Dilution Antimicrobial Susceptibility Tests for Bacteria That Grow Aerobically; Approved Standard-Ninth Edition”).
To prepare for MIC testing, frozen glycerol stocks of clinical isolates (Klebsiella pneumoniae, Eschericia coli, Enterobacter spp, Citrobacter spp, or Pseudomonas aeruginosa) were used to streak for isolated colonies on rich, non-selective, tryptic soy agar containing 5% sheep's blood (TSAB). Frozen glycerol stocks of laboratory engineered, isogenic E. coli strains, which contain cloned β-lactamase expressing plasmids were used to streak for isolated colonies on rich, selective LB agar supplemented with 25 μg/mL tetracycline to maintain the plasmid. All strains were incubated at 37° C. for 18-24 hrs.
On the day of testing, primary cultures were started by scraping off 5-10 colonies from the TSAB plates containing clinical strains or the tetracycline supplemented LB plates containing engineered strains. The clinical strain material was suspended in ˜5 mL of cation adjusted Mueller Hinton Broth (CAMHB) in 14 mL culture tubes. The engineered strain material was suspended in CAMHB (supplemented with 25 μg/mL tetracycline) in 14 mL culture tubes. All strains were incubated at 37° C. with aeration (200 rpm) for ˜2 hrs until the optical density at 600 nm (OD600) was >0.1.
The two compound components of the assay were each diluted in CAMHB and added to the 96-well broth microdilution assay plates. 50 μL of the β-lactam was added to each well of the assay plate in 2-fold dilutions with final concentrations ranging from 128 to 0.13 μg/mL. 25 μL of the BLI compound was added to all wells in the broth microdilution plates at a final concentration of 4 μg/mL. Inoculum cultures were prepared by standardizing the primary cultures to OD600=0.1 and then adding 20 μL of the adjusted primary culture per 1 mL CAMHB for clinical strains or CAMHB (supplemented with tetracycline at 100 μg/mL) for engineered strains, so that the final inoculum density was ˜10^5 colony forming units per milliliter. Diluted inoculum cultures were used to inoculate 25 μl, per well in 96-well broth microdilution assay plates. The final volume of each well was 100 μL and contained a β-lactam at different concentrations, a BLlcompound at 4 μg/mL concentration, the bacterial culture at an OD600 of approximately 0.001 and when necessary tetracycline at 25 μg/mL.
Plates were incubated for 18-20 hours at 37° C. with aeration (200 rpm). Following incubation, growth was confirmed visually placing plates over a viewing apparatus (stand with a mirror underneath) and then OD600 was measured using a SpectraMax 340PC384 plate reader (Molecular Devices, Sunnyvale, Calif.). Growth was defined as turbidity that could be detected with the naked eye or achieving minimum OD600 of 0.1. MIC values were defined as the lowest concentration producing no visible turbidity.
The synergy MIC (sMIC) assay determines the concentration of the BLI required to potentiate the activity of a fixed concentration of a β-lactam antibiotic against β-lactamase producing bacterial strains. The experimental protocol was performed according to Clinical and Laboratory Standards Institute (CLSI) guidelines with modifications as described below (CLSI guidelines can be derived from the CLSI document M07-A9 published in January 2012: “Methods for Dilution Antimicrobial Susceptibility Tests for Bacteria That Grow Aerobically; Approved Standard-Ninth Edition”). […]

[2] = tested on: bacterial strains that express the class D cephalosporinase OXA-15; experiment: Standard BLI potentiation MIC / synergy MIC assays, strains expressing OXA-15; format: cell-based, E. coli; conditions: in combination with a β-lactam; comparator Avibactam (CCC)
How it was run: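 Broth microdilution in cation-adjusted Mueller Hinton broth per CLSI M07-A9, ~10^5 CFU/mL, 18-20 h at 37 °C with aeration; engineered E. coli carrying β-lactamase plasmids kept on 25 μg/mL tetracycline. β-lactam MIC measured in 2-fold dilutions (128-0.13 μg/mL) with BLI fixed at 4 μg/mL; sMIC titrates BLI against a fixed β-lactam concentration. MIC = lowest concentration without visible turbidity.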

Structure (SMILES) | activity and/or spectrum of activity against bacterial strains that express KPC β-lactamases, compared with Avibactam [1] | activity against bacterial strains that express the class D cephalosporinase OXA-15, compared with Avibactam [2]
N=C(N)Nc1nnc([C@@H]2CC[C@@H]3CN2C(=O)N3OS(=O)(=O)O)o1 [Compound 738, (2S,5R)-2-(5-guanidino-1,3,4-oxadiazol-2-yl)-7-oxo-1,6-diazabicyclo[3.2.1]octan-6-yl hydrogen sulfate] | more active than Avibactam for at least one, bacterial strain that expresses KPC β-lactamase and/or show a better spectrum of activity | more active than Avibactam
N=C(N)NC1(Cc2nnc([C@@H]3CC[C@@H]4CN3C(=O)N4OS(=O)(=O)O)o2)CC1 [Compound 739, (2S,5R)-2-(5-((1-guanidinocyclopropyl)methyl)-1,3,4-oxadiazol-2-yl)-7-oxo-1,6-diazabicyclo[3.2.1]octan-6-yl hydrogen sulfate] | more active than Avibactam for at least one, bacterial strain that expresses KPC β-lactamase and/or show a better spectrum of activity | more active than Avibactam
O=C1N2C[C@@H](CC[C@H]2c2nnc([C@H]3[C@@H]4CNC[C@@H]43)o2)N1OS(=O)(=O)O [Compound 740, (2S,5R)-2-(5-(3-azabicyclo[3.1.0]hexan-6-yl)-1,3,4-oxadiazol-2-yl)-7-oxo-1,6-diazabicyclo[3.2.1]octan-6-yl hydrogen sulfate] | more active than Avibactam for at least one, bacterial strain that expresses KPC β-lactamase and/or show a better spectrum of activity | more active than Avibactam
N=C(N)N1CC(Cc2nnc([C@@H]3CC[C@@H]4CN3C(=O)N4OS(=O)(=O)O)o2)C1 [Compound 741, (2S,5R)-2-(5-((1-carbamimidoylazetidin-3-yl)methyl)-1,3,4-oxadiazol-2-yl)-7-oxo-1,6-diazabicyclo[3.2.1]octan-6-yl hydrogen sulfate] | more active than Avibactam for at least one, bacterial strain that expresses KPC β-lactamase and/or show a better spectrum of activity | more active than Avibactam
O=C1N2C[C@@H](CC[C@H]2c2nnc(CCC3CNC3)o2)N1OS(=O)(=O)O [Compound 742, (2S,5R)-2-(5-(2-(azetidin-3-ybethyl)-1,3,4-oxadiazol-2-yl)-7-oxo-1,6-diazabicyclo[3.2.1]octan-6-yl hydrogen sulfate] | more active than Avibactam for at least one, bacterial strain that expresses KPC β-lactamase and/or show a better spectrum of activity | more active than Avibactam
O=C1N2C[C@@H](CC[C@H]2c2nnc(CCCC3CNC3)o2)N1OS(=O)(=O)O [Compound 743, (2S,5R)-2-(5-(3-(azetidin-3-yl)propyl)-1,3,4-oxadiazol-2-yl)-7-oxo-1,6-diazabicyclo[3.2.1]octan-6-yl hydrogen sulfate] | more active than Avibactam for at least one, bacterial strain that expresses KPC β-lactamase and/or show a better spectrum of activity | more active than Avibactam
O=C1N2C[C@@H](CC[C@H]2c2nnc(COC3CNC3)o2)N1OS(=O)(=O)O [Compound 744, (2S,5R)-2-(5-((azetidin-3-yloxy)methyl)-1,3,4-oxadiazol-2-yl)-7-oxo-1,6-diazabicyclo[3.2.1]octan-6-yl hydrogen sulfate] | more active than Avibactam for at least one, bacterial strain that expresses KPC β-lactamase and/or show a better spectrum of activity | more active than Avibactam
O=C1N2C[C@@H](CC[C@H]2c2nnc(CCNC3CNC3)o2)N1OS(=O)(=O)O [Compound 745, (2S,5R)-2-(5-(2-(azetidin-3-ylamino)ethyl)-1,3,4-oxadiazol-2-yl)-7-oxo-1,6-diazabicyclo[3.2.1]octan-6-yl hydrogen sulfate] | more active than Avibactam for at least one, bacterial strain that expresses KPC β-lactamase and/or show a better spectrum of activity | more active than Avibactam
N=C(N)N1CC(NCc2nnc([C@@H]3CC[C@@H]4CN3C(=O)N4OS(=O)(=O)O)o2)C1 [Compound 746, (2S,5R)-2-(5-(((1-carbamimidoylazetidin-3-yl)amino)methyl)-1,3,4-oxadiazol-2-yl)-7-oxo-1,6-diazabicyclo[3.2.1]octan-6-yl hydrogen sulfate] | more active than Avibactam for at least one, bacterial strain that expresses KPC β-lactamase and/or show a better spectrum of activity | more active than Avibactam
N=C(N)N[C@H]1C[C@@H](c2nnc([C@@H]3CC[C@@H]4CN3C(=O)N4OS(=O)(=O)O)o2)C1 [Compound 749, (2S,5R)-2-(5-((1s,3R)-3-guanidinocyclobutyl)-1,3,4-oxadiazol-2-yl)-7-oxo-1,6-diazabicyclo[3.2.1]octan-6-yl hydrogen sulfate] | more active than Avibactam for at least one, bacterial strain that expresses KPC β-lactamase and/or show a better spectrum of activity | more active than Avibactam
O=C1N2C[C@@H](CC[C@H]2c2nnc(C3CC4(CNC4)C3)o2)N1OS(=O)(=O)O [Compound 750, (2S,5R)-2-(5-(2-azaspiro[3.3]heptan-6-yl)-1,3,4-oxadiazol-2-yl)-7-oxo-1,6-diazabicyclo[3.2.1]octan-6-yl hydrogen sulfate] | more active than Avibactam for at least one, bacterial strain that expresses KPC β-lactamase and/or show a better spectrum of activity | more active than Avibactam
N[C@H]1C[C@H](Cc2nnc([C@@H]3CC[C@@H]4CN3C(=O)N4OS(=O)(=O)O)o2)C1 [Compound 751, (2S,5R)-2-(5-(((1r,3S)-3-aminocyclobutyl)methyl)-1,3,4-oxadiazol-2-yl)-7-oxo-1,6-diazabicyclo[3.2.1]octan-6-yl hydrogen sulfate] | more active than Avibactam for at least one, bacterial strain that expresses KPC β-lactamase and/or show a better spectrum of activity | more active than Avibactam
